Data published in patent publication US4113953A, “2-Nitroimidazole derivatives” (Gruppo Lepetit S.p.A., priority 1976, dated 1978).

Experiments:
[1] = toxicity (LD50, per os, mice); assay type: in vivo
Text: (§1) The inventive compounds have very interesting antimicrobial and amoebicidal utilities which are ascertained through the usual and well known in vitro tests. Moreover, they display an outstanding in vivo activity against Trichomonas vaginalis, a protozoan which is responsible for itching and other painful and troublesome diseases of the vaginal tract. Their in vivo activity, expressed as an ED50 value, is better than that of other known 2-nitroimidazole derivatives, and their activity is, moreover, coupled with a very low toxicity, expressed as an LD50 value. These properties indicate that the compounds of the invention are very promising anti-Trichomonas agents both from the effectiveness and the safety standpoint, owing to their […] and their high therapeutic indexes (T.I.). Since a therapeutic index is expressed by the following ratio: [formula] it is clear that the higher the T.I., the safer a drug is.

[2] = system: Trichomonas vaginalis; assay: in vivo activity against Trichomonas vaginalis (ED50, per os, mice) and therapeutic index; conditions: for ED50: po, Trichomonas vaginalis
Text: as §1
In the following Table, results representative of the inventive compounds are reported.

| Compound | LD50 [1] [mg/kg] | T.I. (LD50/ED50) ([2]; per os, mice) | ED50 ([2]; per os, mice) [mg/kg] | T.I. compared with metronidazole, in words ([2]; vs metronidazole, LD50/ED50) | ED50 compared with metronidazole, in words ([2]; vs metronidazole, per os, mice) |
| --- | --- | --- | --- | --- | --- |
| Cn1c(C(C)(C)OC(=O)Oc2ccccc2)cnc1[N+](=O)[O-] [Example 1, α, α,1-Trimethyl-2-nitroimidazole-5-methanol phenylcarbonate] | 3250 | 1969 | 1.65 | better T.I. than metronidazole | better ED50 |
| Cc1ncc([N+](=O)[O-])n1CCO [metronidazole, 1-(2-hydroxyethyl)-2-methyl-5-nitroimidazole, reference compound] | 3800 | 658 | 5.77 |  |  |
